Read-outs that look alike come from different tables or passages of the source.
Assays:
[1] = Rat liver microsome clearance (RLM-CLhep); format: in vitro ADME; details: 0.5 mg/ml protein, 1 mM NADPH, 1 μM compound, 37° C.
Protocol: (§1) Certain pharmacokinetic attributes were evaluated for some compounds of the present disclosure. […] The compounds of the present disclosure were discovered to provide for an unexpected combination of high potency as measured by hTRPA1 IC50 and high stability as measured by RLM-CLhep, HLM-CLhep and Rat IV PK.
(§2) The reactions were incubated at 37° C. for 0, 20, 40 and 60 minutes and at each allotted time point an aliquot of the reaction mixture was added to ice-cold acetonitrile with internal standard. The samples were subsequently centrifuged at 3000×g for 10 minutes and supernatant was diluted in water before LC-MS/MS analysis.

[2] = Rat IV PK (hepatic clearance); format: in vivo; details: rat IV dose of 1 mg/kg
Protocol: as §1

human TRPA1 = human TRPA1 (Homo sapiens (Human), UniProt O75762); assay: hTRPA1 CHO Ca2+ FLIPR assay (block of cinnamaldehyde induced calcium influx); format: cell-based
How it was run: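 CHO cells expressing TRPA1 loaded with calcium dye (1 h at 37° C, then 15 min at room temperature) in HBSS/20 mM HEPES pH 7.4/0.02% BSA. Compounds preincubated 20 min at room temperature before cinnamaldehyde addition, with FLIPR Ca2+ readout. IC50 from Hill fit, n fixed at 1.5.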

[3] = Human liver microsome clearance (HLM-CLhep); format: in vitro ADME; details: 0.5 mg/ml protein, 1 mM NADPH, 1 μM compound, 37° C.
Protocol: as §1, §2

[4] = repeated from Table 1, read-out: hTRPA1 IC50
[5] = CHO cells expressing TRPA1, 75 uM cinnamaldehyde, Hill coefficient fixed to 1.5, read-out: hTRPA1 (hTRPA1 CHO Ca2+ MAX EVO (IC50))

Chain of human TRPA1 (O75762 whole entry): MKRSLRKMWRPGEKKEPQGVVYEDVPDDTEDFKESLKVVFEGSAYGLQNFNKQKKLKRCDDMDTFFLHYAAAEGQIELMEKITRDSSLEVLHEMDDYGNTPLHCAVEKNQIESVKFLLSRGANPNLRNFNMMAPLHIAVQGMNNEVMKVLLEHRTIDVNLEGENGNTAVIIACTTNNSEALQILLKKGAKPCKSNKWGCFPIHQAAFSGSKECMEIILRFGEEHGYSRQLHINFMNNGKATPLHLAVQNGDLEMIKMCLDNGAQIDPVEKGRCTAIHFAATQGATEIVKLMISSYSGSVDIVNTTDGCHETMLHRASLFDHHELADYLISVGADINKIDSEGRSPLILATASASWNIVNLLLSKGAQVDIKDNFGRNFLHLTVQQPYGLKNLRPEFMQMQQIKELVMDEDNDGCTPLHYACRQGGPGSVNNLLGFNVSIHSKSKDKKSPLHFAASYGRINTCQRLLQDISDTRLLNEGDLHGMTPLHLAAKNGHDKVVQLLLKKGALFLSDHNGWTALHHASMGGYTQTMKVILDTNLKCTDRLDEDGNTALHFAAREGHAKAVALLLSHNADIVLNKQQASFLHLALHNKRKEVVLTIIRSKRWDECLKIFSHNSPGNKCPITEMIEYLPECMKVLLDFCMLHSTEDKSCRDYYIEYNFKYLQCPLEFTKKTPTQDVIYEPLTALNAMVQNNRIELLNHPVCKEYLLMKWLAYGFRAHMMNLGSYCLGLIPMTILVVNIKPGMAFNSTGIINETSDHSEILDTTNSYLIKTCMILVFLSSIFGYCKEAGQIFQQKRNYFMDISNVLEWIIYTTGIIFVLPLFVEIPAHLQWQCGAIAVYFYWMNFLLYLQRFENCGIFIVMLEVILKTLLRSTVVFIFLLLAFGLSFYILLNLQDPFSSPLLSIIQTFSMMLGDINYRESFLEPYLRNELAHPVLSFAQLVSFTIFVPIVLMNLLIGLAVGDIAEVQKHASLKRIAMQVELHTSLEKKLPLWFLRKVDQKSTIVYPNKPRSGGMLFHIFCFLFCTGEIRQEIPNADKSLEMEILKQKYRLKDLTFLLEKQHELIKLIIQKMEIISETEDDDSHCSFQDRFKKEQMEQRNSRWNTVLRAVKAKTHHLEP

Row | IC50 (human TRPA1; [5]) | SMILES | also measured
1 |  | Cn1cnc2ncn(Cc3nn(CCc4ccc(Cl)cc4)c(=O)o3)c(=O)c21 [Example Compound 1, 3-[2-(4-chlorophenyl)ethyl]-5-[(7-methyl-6-oxo-purin-1-yl)methyl]-1,3,4-oxadiazol-2-one] | RLM-CLhep (rat liver microsome clearance) [1]: 34 mL/min/kg; Rat IV PK (hepatic clearance) [2]: 48 mL/min/kg; IC50 (human TRPA1; [4]): 0.095 µM; HLM-CLhep (human liver microsome clearance) [3]: 11 mL/min/kg
2 |  | Cn1cnc2ncn(Cc3nn(C[C@@H](F)c4ccc(Cl)cc4)c(=O)o3)c(=O)c21 [Example Compound 14, (S)-3-(2-(4-chlorophenyl)-2-fluoroethyl)-5-((7-methyl-6-oxo-6H-purin-1 (7H)-yl)methyl)-1,3,4-oxadiazol-2(3H)-one] | RLM-CLhep (rat liver microsome clearance) [1]: 28 mL/min/kg; Rat IV PK (hepatic clearance) [2]: 17 mL/min/kg; IC50 (human TRPA1; [4]): 0.034 µM; HLM-CLhep (human liver microsome clearance) [3]: 6 mL/min/kg
3 |  | Cn1cnc2ncn(Cc3nn([C@H]4C[C@H](c5ccc(Cl)cc5)C4)c(=O)o3)c(=O)c21 [Example Compound 50, 3-[3-(4-chlorophenyl)cyclobutyl]-5-[(7-methyl-6-oxo-purin-1-yl)methyl]-1,3,4-oxadiazol-2-one] | RLM-CLhep (rat liver microsome clearance) [1]: 12 mL/min/kg; Rat IV PK (hepatic clearance) [2]: 10 mL/min/kg; HLM-CLhep (human liver microsome clearance) [3]: 5 mL/min/kg
4 | 0.00484 µM | Cc1cc(C#N)nc2ncn(Cc3nn([C@H]4C[C@H](c5ccc(Cl)cc5)C4)c(=O)o3)c(=O)c12 [compound 93, trans-3-[[4-[3-(4-chlorophenyl)cyclobutyl]-5-oxo-1,3,4-oxadiazol-2-yl]methyl]-5-methyl-4-oxo-pyrido[2,3-d]pyrimidine-7-carbonitrile] | 
5 | 0.0168 µM | O=c1c2cccnc2ncn1Cc1nn([C@H]2C[C@](F)(c3ccc(Cl)cc3)C2)c(=O)o1 [compound 94, trans-3-[3-(4-chlorophenyl)-3-fluoro-cyclobutyl]-5-[(4-oxopyrido[2,3-d]pyrimidin-3-yl)methyl]-1,3,4-oxadiazol-2-one] | 
6 | 0.018 µM | Cc1ccnc2ncn(Cc3nn([C@H]4C[C@](F)(c5ccc(F)cc5)C4)c(=O)o3)c(=O)c12 [compound 96, 3-[3-fluoro-3-(4-fluorophenyl)cyclobutyl]-5-[(5-methyl-4-oxo-pyrido[2,3-d]pyrimidin-3-yl)methyl]-1,3,4-oxadiazol-2-one] | 
7 | 0.0802 µM | Cn1cnc2ncn(Cc3nn([C@H]4C[C@](F)(c5ccc(F)cc5)C4)c(=O)o3)c(=O)c21 [compound 97, 3-[3-fluoro-3-(4-fluorophenyl)cyclobutyl]-5-[(7-methyl-6-oxo-purin-1-yl)methyl]-1,3,4-oxadiazol-2-one] | 
8 | 0.0162 µM | O=c1c2cccnc2ncn1Cc1nn([C@H]2C[C@H](c3ccc(Cl)cc3)C2)c(=O)o1 [compound 98, trans-3-[3-(4-chlorophenyl)cyclobutyl]-5-[(4-oxopyrido[2,3-d]pyrimidin-3-yl)methyl]-1,3,4-oxadiazol-2-one] | 
9 | 0.0573 µM | Cc1ccnc2ncn(Cc3nn([C@H]4C[C@@](F)(c5ccc(C(F)(F)F)cc5)C4)c(=O)o3)c(=O)c12 [compound 99, 3-[3-fluoro-3-[4-(trifluoromethyl)phenyl]cyclobutyl]-5-[(5-methyl-4-oxo-pyrido[2,3-d]pyrimidin-3 yl)methyl]-1,3,4-oxadiazol-2-one] | 
10 | 0.00959 µM | Cn1cnc2ncn(Cc3nn([C@@H]4CC[C@@H](c5ccc(Cl)cc5)C4)c(=O)o3)c(=O)c21 [compound 100, 5-[(7-methyl-6-oxo-purin-1-yl)methyl]-3-[(1R,3R)-3-(4-chlorophenyl)cyclopentyl]-1,3,4-oxadiazol-2-one] | 
11 | 0.026 µM | Cn1cnc2ncn(Cc3nn([C@H]4C[C@H](c5ccc(OC(F)F)cc5)C4)c(=O)o3)c(=O)c21 [compound 103, 3-[3-[(trans)-4-(difluoromethoxy)phenyl]cyclobutyl]-5-[(7-methyl-6-oxo-purin-1-yl)methyl]-1,3,4-oxadiazol-2-one] | 
12 | 0.0296 µM | Cc1ccnc2ncn(Cc3nn([C@H]4C[C@](F)(c5ccc(Cl)cc5)C4)c(=O)o3)c(=O)c12 [compound 104, 3-[3-(4-chlorophenyl)-3-fluoro-cyclobutyl]-5-[(5-methyl-4-oxo-pyrido[2,3-d]pyrimidin-3-yl)methyl]-1,3,4-oxadiazol-2-one] | 
13 | 0.064 µM | Cn1cnc2ncn(Cc3nn([C@H]4C[C@](F)(c5ccc(Cl)cc5)C4)c(=O)o3)c(=O)c21 [compound 105, trans-3-[3-(4-chlorophenyl)-3-fluoro-cyclobutyl]-5-[(7-methyl-6-oxo-purin-1-yl)methyl]-1,3,4-oxadiazol-2-one] | 
14 | 0.0299 µM | Cn1cnc2ncn(Cc3nn([C@H]4C[C@H](c5ccc(Cl)c(F)c5)C4)c(=O)o3)c(=O)c21 [compound 106, 3-[3-(4-chloro-3-fluoro-phenyl)cyclobutyl]-5-[(7-methyl-6-oxo-purin-1-yl)methyl]-1,3,4-oxadiazol-2-one] | 
15 | 0.0063 µM | Cc1ccnc2ncn(Cc3nn([C@H]4C[C@H](c5ccc(Cl)cc5)C4)c(=O)o3)c(=O)c12 [compound 107, 3-[3-(4-chlorophenyl)cyclobutyl]-5-[(5-methyl-4-oxo-pyrido[2,3-d]pyrimidin-3-yl)methyl]-1,3,4-oxadiazol-2-one] | 
16 | 0.09 µM | Cn1cnc2ncn(Cc3nn([C@H]4C[C@H](c5ccc(C(F)(F)F)cc5)C4)c(=O)o3)c(=O)c21 [compound 111, 5-[(7-methyl-6-oxo-purin-1-yl)methyl]-3-[3-[4-(trifluoromethyl)phenyl]cyclobutyl]-1,3,4-oxadiazol-2-one] | 
17 | 0.0648 µM | Cn1cnc2ncn(Cc3nn([C@H]4C[C@H](c5ccc(F)cc5)C4)c(=O)o3)c(=O)c21 [compound 112, 3-[3-(4-fluorophenyl)cyclobutyl]-5-[(7-methyl-6-oxo-purin-1-yl)methyl]-1,3,4-oxadiazol-2-one] | 
18 | 0.0178 µM | Cn1cnc2ncn(Cc3nn([C@H]4C[C@H](c5ccc6ccccc6c5)C4)c(=O)o3)c(=O)c21 [compound 113, 5-[(7-methyl-6-oxo-purin-1-yl)methyl]-3-[3-(2-naphthyl)cyclobutyl]-1,3,4-oxadiazol-2-one] | 

Source: US10913742B2, “Oxadiazolones as transient receptor potential channel inhibitors” (Genentech, Inc., priority 2017, dated 2021)
